In patent publication US20100022475A1, “NOVEL TRIAZOLOPYRIMIDINE DERIVATIVES” (priority 2004, published 2010) one finds melting point and inhibits fungal infestation data, which are given here for two molecules.

In general, melting point refers to the temperature, or range, at which the solid turns liquid.

Structures are written as SMILES. A value given as a limit tells only on which side of the number the result lay.

Data set [1] concerns Magnaporthe grisea (Pyricularia oryzae). It counts as in vivo. As to conditions: 200 ppm, spray, rice plants cv. Koshihikari, preventive, assessed 6 days after inoculation.
For data set [2], the system named is Pyrenophora teres (Helminthosporium teres). The experiment in a line: Pyrenophora teres (Helminthosporium teres) / barley / preventive (net blotch). The data set is classed as in vivo. As to conditions: 200 ppm, spray, barley plants cv. Regina, assessed 4 days after inoculation.
In data set [3] the test system is Septoria tritici. The experiment in a line: Septoria tritici / wheat / preventive (Septoria leaf spot). It counts as in vivo. As to conditions: 200 ppm, spray, wheat plants cv. Riband, assessed 16-18 days after inoculation.
In data set [4] the test system is Alternaria solani. The experiment in a line: Alternaria solani / tomato / preventive. The data set is classed as in vivo. As to conditions: 200 ppm, spray, tomato plants cv. Roter Gnom, assessed 4 days after inoculation.
Data set [5] has as its system Puccinia recondita. The experiment in a line: Puccinia recondita / wheat / preventive (brown rust). It counts as in vivo. As to conditions: 200 ppm, spray, wheat plants cv. Arina, assessed 11 days after inoculation.
For data set [6], the system named is Botrytis cinerea. The experiment in a line: Botrytis cinerea / tomato / preventive. As to conditions: 200 ppm, spray, tomato plants cv. Roter Gnom, assessed 3 days after inoculation. The data set is classed as in vivo.

`C[Si]1(CNc2c(-c3c(F)cc(F)cc3F)c(Cl)nc3ncnn23)CCCC1` [I.d.081, [5-chloro-6-(2,4,6-trifluoro-phenyl)-[1,2,4]triazolo[1,5-a]pyrimidin-7-yl]-(1-methyl-silolan-1-ylmethyl)-amine] displayed a melting point of 138 to 139 °C. In data set [1], this molecule returned an inhibits fungal infestation not below 80%. This molecule came in with an inhibits fungal infestation in data set [2] not below 80%. Also, the inhibits fungal infestation in data set [3] is not below 80%. In addition, the inhibits fungal infestation in data set [4] was not below 80%. For the same molecule, in data set [5], the inhibits fungal infestation was not below 80%. Besides, in data set [6], the inhibits fungal infestation was not below 80%.
For the molecule `C[Si]1(CNc2c(-c3c(F)cc(F)cc3F)c(Cl)nc3ncnn23)CCCCC1` [I.o.081, [5-chloro-6-(2,4,6-trifluoro-phenyl)-[1,2,4]triazolo[1,5-a]pyrimidin-7-yl]-(1-methyl-silinan-1-ylmethyl)-amine], the melting point fell in the range of 150 to 152 °C.
